Values after ≈ are worked out from the molar mass of the structure shown. Where two headings read alike, the source gives them in different places.
Experiments:
KRAS G12C Ba/F3 cells = KRAS G12C Ba/F3 cells (Homo sapiens, UniProt P01116, G12C, cells depend on it); test: Ba/F3 proliferation assay, KRAS G12C; assay type: cell-based; settings: 72 h, AlamarBlue, read-out: KRAS G12C Ba/F3 IC50
Protocol: (§1) To generate KRASG12-dependent Ba/F3 models, Ba/F3 cells are transduced with retroviruses containing vectors that harbor KRASG12 isoforms. Platinum-E cells (Cell Biolabs) are used for retrovirus packaging. Retrovirus is added to Ba/F3 cells. To ensure infection, 4 μg/mL polybrene is added and cells are spinfected. […] Cells with an infection efficiency of 10% to 20% are further cultivated and puromycin selection with 1 μg/mL is initiated. As a control, parental Ba/F3 cells are used to show selection status. Selection is considered successful when parental Ba/F3 cells cultures died. To evaluate the transforming potential of KRASG12 mutations, the growth medium is no longer supplemented with IL-3. Ba/F3 cells harboring the empty vector are used as a control. Approximately ten days before conducting the experiments, puromycin is left out.
(§2) All treatments are performed in technical duplicates. […] AlamarBlue™ (ThermoFisher), a viability stain, is added and fluorescence measured in the PerkinElmer Envision HTS Multilabel Reader. The raw data are imported into and analyzed with the Boehringer Ingelheim proprietary software MegaLab (curve fitting based on the program PRISM, GraphPad Inc.).

[1] = Solubility measurement (DMSO solution precipitation method); assay type: physicochemical; settings: aqueous buffer, kinetic from dmso stock
Protocol: The DMSO solution is diluted with an aqueous medium (McIlvaine buffer with pH=4.5 or 6.8) to a final concentration of 250 μM. After 24 h of shaking at ambient temperature a potentially formed precipitate is removed by filtration. The concentration of the test compound in the filtrate is determined by LC-UV methods by calibrating the signal to the signal of a reference solution with complete dissolution of the test compound in acetonitrile/water (1:1) with known concentration.

KRAS (G12C) and SOS1 = biological target: T1, KRAS (G12C) and SOS1 (Homo sapiens, UniProt P01116, C118S/C51S/C80L/G12C); test: KRAS::SOS1 AlphaScreen binding assay, KRAS G12C
T1 construct: KRAS (G12C) 1-169, N-terminal 6His-tag for purification; 6His (N, cleaved yes)
Protocol: (§3) Low IC50 values in this assay setting are indicative of strong inhibition of protein-protein interaction between SOS1 and KRAS:
(§4) These assays measure the inhibitory effect of compounds on KRAS mutant protein-protein interactions using the Alpha Screen technology by Perkin Elmer.
(§5) For the chosen highest assay concentration of 100 μM, 150 nL of compound solution are transferred from a 10 mM DMSO compound stock solution. A series of eleven fivefold dilutions per compound are transferred to the assay plate, compound dilutions are tested in duplicates. DMSO are added as backfill to a total volume of 150 nL.
(§6) The assays run on a fully automated robotic system in a darkened room below 100 Lux. To 150 nl of compound dilution 10 μl of a mix including KRAS mutant protein, SOS1 (final assay concentrations see above) and GDP nucleotide (Sigma G7127; final assay concentration 10 μM) in assay buffer (1×PBS, 0.1% BSA, 0.05% Tween 20) are added into columns 1-24. After 30 minutes incubation time 5 μl of Alpha Screen bead mix in assay buffer are added into columns 1-23.
(§7) Plates are kept at room temperature in a darkened incubator. After an additional 60 minutes incubation time the signal is measured in a PerkinElmer Envision HTS Multilabel Reader using the AlphaScreen specs from PerkinElmer.
(§8) IC50 values are calculated and analyzed with Boehringer Ingelheim's MEGALAB IC50 application using a 4 parametric logistic model.

[2] = Metabolic (microsomal) stability assay, HLM; assay type: in vitro ADME; settings: human liver microsomes, 1 μM, predicted clearance as percent of liver blood flow
Protocol: The metabolic degradation of the test compound is assayed at 37° C. with pooled liver microsomes (mouse (MLM), rat (RLM) or human (HLM)). The final incubation volume of 48 μL per time point contains TRIS buffer (pH 7.5; 0.1 M), magnesium chloride (6.5 mM), microsomal protein (0.5 mg/mL for mouse/rat, 1 mg/mL for human specimens) and the test compound at a final concentration of 1 μM. Following a short preincubation period at 37° C., the reactions are initiated by addition of 12 μL beta-nicotinamide adenine dinucleotide phosphate, reduced form (NADPH, 10 mM) and terminated by transferring an aliquot into solvent after different time points (0, 5, 15, 30, 60 min). Additionally, the NADPH-independent degradation is monitored in incubations without NADPH, terminated at the last time point by addition of acetonitrile. The quenched incubations are pelleted by centrifugation (4,000 rpm, 15 min). An aliquot of the supernatant is assayed by LC-MS/MS to quantify the concentration of parent compound in the individual samples.
In vitro intrinsic clearance (CLint, in vitro) is calculated from the time course of the disappearance of the test drug during the microsomal incubation. Each plot is fitted to the first-order elimination rate constant as C(t)=C0*exp(−ke*t), where C(t) and C0 are the concentration of unchanged test drug at incubation time t and that at preincubation and ke is the disappearance rate constant of the unchanged drug. Subsequently, CLint, in vitro (μL min^−1·amount protein) values are converted to predicted CLint, in vivo (mL min^−1·kg^−1) from incubation parameters according to the equation CLint, in vivo=CLint, in vitro×(incubation volume (ml)/amount protein (mg))×(amount protein (mg)/g liver tissue)×(liver weight/body wt.). For better across species comparison the predicted clearance is expressed as percent of the liver blood flow [% QH](mL min^−1·kg^−1) in the individual species. In general, high stability (corresponding to low % QH) of the compounds across species is desired.

KRAS G12D Ba/F3 cells = KRAS G12D Ba/F3 cells (Homo sapiens, UniProt P01116, G12D, cells depend on it); test: Ba/F3 proliferation assay, KRAS G12D; assay type: cell-based; settings: 72 h, AlamarBlue, read-out: KRAS G12D Ba/F3 IC50
Protocol: as §1, §2

KRAS (G12V) and SOS1 = biological target: T2, KRAS (G12V) and SOS1 (Homo sapiens, UniProt P01116, C118S/G12V); test: KRAS::SOS1 AlphaScreen binding assay, KRAS G12V
T2 construct: KRAS (G12V) 1-169, N-terminal 6His-tag for purification; 6His (N, cleaved yes); TEV cleavage site
Protocol: as §3, §4, §5, §6, §7, §8

KRAS G12V Ba/F3 cells = KRAS G12V Ba/F3 cells (Homo sapiens, UniProt P01116, G12V, cells depend on it); test: Ba/F3 proliferation assay, KRAS G12V; assay type: cell-based; settings: 72 h, AlamarBlue, read-out: KRAS G12V Ba/F3 IC50
Protocol: as §1, §2

KRAS (G12D) and SOS1 = biological target: T3, KRAS (G12D) and SOS1 (Homo sapiens, UniProt P01116, G12D); test: KRAS::SOS1 AlphaScreen binding assay, KRAS G12D
T3 construct: KRAS (G12D) 1-169, N-terminal 6His-tag; 6His (N); purchased Xtal BioStructures, Inc. (KRAS G12D); Viva Biotech Ltd (SOS1)
Protocol: as §3, §4, §5, §6, §7, §8

[3] = tested on: ERK phosphorylation in NCI-H358 (KRAS G12C); test: ERK phosphorylation assay (assay 1, NCI-H358); assay type: cell-based; settings: Homo sapiens; NCI-H358, assay 1, 1 h incubation; read-out: IC50 H358 pERK
Protocol: Low IC50 values in this assay setting are indicative of high potency of the compounds according to the invention. […]
The cells are incubated for 1 h at room temperature and then incubated overnight in an incubator at 37° C. and 5% CO2 in a humidified atmosphere. 60 nL compound solution (10 mM DMSO stock solution) is then added using a Labcyte Echo 550 device. […] After 20 min of incubation at room temperature with shaking, 6 μL of each lysate sample is transferred to a 384-well Proxiplate and analyzed for pERK (Thr202/Tyr204) with the AlphaLISA SureFire Ultra pERK1/2 (Thr202/Tyr204) Assay Kit. 3 μL Acceptor Mix and 3 μL Donor Mix are added under subdued light and incubated for 2 h at room temperature in the dark, before the signal is measured on a PerkinElmer Envision HTS Multilabel Reader. The raw data are imported into and analyzed with the Boehringer Ingelheim proprietary software MegaLab (curve fitting based on the program PRISM, GraphPad Inc.).

[4] = McIlvaine buffer pH 4.5, 24 h, read-out: solubility pH 4.5
[5] = McIlvaine buffer pH 6.8, 24 h, read-out: solubility pH 6.8

T3 sequence (P01116 1-169 isoform P01116-2 G12D): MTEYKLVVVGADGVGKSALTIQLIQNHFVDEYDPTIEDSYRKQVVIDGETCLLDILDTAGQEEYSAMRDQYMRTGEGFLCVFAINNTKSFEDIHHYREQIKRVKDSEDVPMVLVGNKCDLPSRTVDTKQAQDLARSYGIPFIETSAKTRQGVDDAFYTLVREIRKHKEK
T1 sequence (P01116 1-169 isoform P01116-2 G12C/C51S/C80L/C118S): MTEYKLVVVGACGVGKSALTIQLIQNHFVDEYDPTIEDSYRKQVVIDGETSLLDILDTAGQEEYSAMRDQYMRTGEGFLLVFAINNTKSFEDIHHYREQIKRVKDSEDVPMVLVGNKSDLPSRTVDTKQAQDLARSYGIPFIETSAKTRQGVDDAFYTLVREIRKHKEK
Sequence of KRAS G12C Ba/F3 cells (P01116 whole entry G12C, canonical isoform): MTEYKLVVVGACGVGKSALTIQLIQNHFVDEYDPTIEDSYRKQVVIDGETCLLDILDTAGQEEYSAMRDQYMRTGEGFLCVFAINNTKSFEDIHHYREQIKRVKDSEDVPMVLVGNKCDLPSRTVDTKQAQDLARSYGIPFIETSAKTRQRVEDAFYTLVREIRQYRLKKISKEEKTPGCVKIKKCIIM
Sequence of KRAS G12D Ba/F3 cells (P01116 whole entry G12D): as the sequence (P01116 whole entry G12C, canonical isoform) above, with C12D counted along it
T2 sequence (P01116 1-169 isoform P01116-2 G12V/C118S): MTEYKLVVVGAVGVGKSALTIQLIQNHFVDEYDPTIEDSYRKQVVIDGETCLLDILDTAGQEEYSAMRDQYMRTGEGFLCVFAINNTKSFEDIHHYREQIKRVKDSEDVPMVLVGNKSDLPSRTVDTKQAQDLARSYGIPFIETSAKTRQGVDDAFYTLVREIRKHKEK
Sequence of KRAS G12V Ba/F3 cells (P01116 whole entry G12V): as the sequence (P01116 whole entry G12C, canonical isoform) above, with C12V counted along it

Row | SMILES | GI50 (KRAS G12C Ba/F3 cells) [nM] | solubility at 24 h [1, 4] [µg/mL] | solubility at 24 h [1, 5] [µg/mL] | IC50 (KRAS (G12C) and SOS1) [nM] | HLM QH [2] [%] | GI50 (KRAS G12D Ba/F3 cells) [nM] | IC50 (KRAS (G12V) and SOS1) [nM] | GI50 (KRAS G12V Ba/F3 cells) [nM] | IC50 (KRAS (G12D) and SOS1) [nM] | IC50 [3] [nM]
1 | C[C@H]1CN(CC2CC2)CCCN1c1nccc(-c2noc([C@@]3(C)CCCc4sc(N)c(C#N)c43)n2)n1 [Example V-3] | 409 | > 100 | 82 (≈ 162 µM) | 6 | >95 | 214 | 5 | 516 | 3 | 24
2 | C[C@H](Oc1ccnc(-c2cc([C@@]3(C)CCCc4sc(N)c(C#N)c43)on2)n1)[C@@H]1CCCN1C [Example V-24] | 105 | > 110 | > 110 | 4 |  | 108 |  |  | 2 | 19
3 | C[C@H](Oc1ccnc(-c2cc([C@@]3(C)CCCc4sc(N)c(C#N)c43)no2)n1)[C@@H]1CCCN1C [Example V-25] | 940 | > 110 | > 100 | 14 |  | 961 | 11 | 6060 | 9 | 100
4 | CC(C)N1CCCN(c2nccc(-c3cc([C@@]4(C)CCCc5sc(N)c(C#N)c54)on3)n2)[C@@H](C)C1 [Example V-26] | 95 | > 100 | 95 (≈ 193 µM) | 7 |  | 79 |  |  | 2 | 

Source: patent US20250313553A1, “ANNULATED 2-AMINO-3-CYANO THIOPHENES AND DERIVATIVES FOR THE TREATMENT OF CANCER” (Boehringer Ingelheim Int'l GmbH Corp., priority 2021, published 2025)
